Results on 41 compounds are retold here after patent US10202388B2, “Fused-ring compounds, pharmaceutical composition and uses thereof” (SHANGHAI DE NOVO PHARMATECH CO., LTD., priority 2015, dated 2019).

Chain of HeLa cell IDO1 (P14902 whole entry): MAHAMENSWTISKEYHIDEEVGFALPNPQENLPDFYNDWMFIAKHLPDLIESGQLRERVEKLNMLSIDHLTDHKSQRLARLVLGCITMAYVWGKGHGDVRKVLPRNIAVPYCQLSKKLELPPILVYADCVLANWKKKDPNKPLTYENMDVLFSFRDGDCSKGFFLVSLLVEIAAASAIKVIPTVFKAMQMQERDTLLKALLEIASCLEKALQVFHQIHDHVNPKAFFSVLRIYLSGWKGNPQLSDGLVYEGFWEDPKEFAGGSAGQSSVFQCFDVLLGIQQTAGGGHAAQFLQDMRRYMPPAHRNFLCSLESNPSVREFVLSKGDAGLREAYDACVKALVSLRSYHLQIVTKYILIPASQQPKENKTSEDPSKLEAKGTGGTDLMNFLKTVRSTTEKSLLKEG
Chain of HeLa cell based IDO1 (P14902 whole entry): as above
Chain of Human recombinant IDO1 (P14902 whole entry): as above

One test addresses Human recombinant IDO1 (Homo sapiens (Human), UniProt P14902). Put plainly: IDO1 enzymatic assay (UV absorption at 321 nm). It counts as biochemical. The following applies: human recombinant IDO1, 80 min incubation, room temperature; read-out: hIDO1 IC50. The method, then: The detailed experimental method is as follow:
The compounds described in this disclosure were dissolved in 10% DMSO to predefined concentration. All of the reactions were conducted at room temperature in this disclosure. Human recombinant IDO1 (BPS Bioscience) was added so that its concentration was 200 nm in the reaction buffer solution (200 μL). […] 10 μL test compound solution was added into the above reaction solution (200 μL), so that the final concentration of DMSO in all reaction wells was 0.5%. % concentration was volume %. After 80 min incubation of the reaction solution, the UV absorbance was measured using TECAN Infinite M1000 plate reader. For the negative control (blank), 10 μl of the assay buffer was added instead of the IDO1
All reagents (excluding human recombinant IDO1) were purchased from Sigma Aldrich, MO, USA.
The percent activity in the presence of each compound was calculated according to the following equation: % activity=[(A−Ab)/(At−Ab)]×100, where A=the absorption signal in the presence of the compound, Ab=the absorption signal of blank, At=the absorption signal in the absence of the compound. […] The IC50 was calculated using non-linear regression in Graph Pad Prism® 4.
As usually defined, the IC50 is the concentration that inhibits the measured activity by half. Turning to `OC(Cn1c2ccccc2n2cncc12)C12CC3CC(CC(C3)C1)C2` (centres unmarked) [Compound 40], the IC50 lay in the range of 1000 to 10000 nM.

The next test has as its target HeLa cell IDO1 (Homo sapiens (Human), UniProt P14902). Briefly: HeLa cell based IDO1 inhibition assay (kynurenine readout, IFN-γ induced). Conditions: HeLa cells. As for the experimental part:
HeLa cell line was purchased from ATCC, cultured in MEM/EBSS medium supplemented with 10% FBS, penn-step (100,000 U/L), non-essential amino acid (0.1 Mm), sodium pyruvate (1.0 Mm). Cells were cultured at 37° C., 95% humidity and 5% CO2. […] The detailed experimental method is as follow:
25,000 HeLa cells were placed on 96-well plates. Each well contained 100 μl culture medium, subsequently IFN-γ and test compounds at specific concentrations (concentration range between 10 μM and 1 Nm, so that the final volume of culture medium was 200 μL) were added and IFN-γ was used to induce IDO1 expression. After incubation, 140 μL supernatant was transferred to 96-well plates. After adding 6.1 N TCA (10 μL), the plates were continuously incubated at 50° C. for 30 min, to hydrolyze N-formylkynurenine produced by IDO to kynurenine. The reaction solution was then centrifuged at 2500 rpm for 10 min to remove precipitate. 100 μL/well supernatant was then transferred to another 96-well plate. 100 μL of 2% (w/v) 4-N,N-dimethyl aminobenzaldehyde acetic acid solution was added and incubated at room temperature for 10 min. The yellow color derived from kynurenine was recorded by measuring absorbance at 480 nm using a microplate reader (TECAN Infinite M1000 Pro).
Regarding `CCS(=O)(=O)NC1C2CC3CC1CC(C(O)CC1c4c(F)cccc4-c4cncn41)(C3)C2` (centres unmarked) [Compound 66], the IC50 is under 100 nM.

`O=C(Nc1ccccc1)N1C2CC3CC1CC(C(O)CC1c4c(F)cccc4-c4cncn41)(C3)C2` (centres unmarked) [Compound 208] came in with a 50% inhibitory concentration (IC50) of under 100 nM.

Compound `O=S(=O)(NC1C2CC3CC1CC(C(O)CC1c4c(F)cccc4-c4cncn41)(C3)C2)c1ccccc1` (single isomer, unassigned) [Compound 47B] came in with an IC50 of under 100 nM.

Compound `O=C(Nc1ccc(F)c(F)c1)NC1C2CC3CC1CC(C(O)CC1c4c(F)cccc4-c4cncn41)(C3)C2` (centres unmarked) [Compound 108A] had an IC50 of under 100 nM.

In turn, `CS(=O)(=O)Nc1ccc(S(=O)(=O)NC2C3CC4CC2CC(C(O)CC2c5c(F)cccc5-c5cncn52)(C4)C3)cc1` (centres unmarked) [Compound 87] returned an IC50 of 500 to 1000 nM.

`N#Cc1ccc(S(=O)(=O)NC23CC4CC(C2)C(C(O)CC2c5ccccc5-c5cncn52)C(C4)C3)cc1` (single isomer, unassigned) [Compound 165A] had an IC50 of under 100 nM.

Consider `N#Cc1ccc(NC(=O)NC2C3CC4CC2CC(C(O)CC2c5c(F)cccc5-c5cncn52)(C4)C3)cc1` (centres unmarked) [Compound 100], for which the IC50 was under 100 nM.

`CS(=O)(=O)NC12CC3CC(C1)C(C(O)CC1c4ccccc4-c4cncn41)C(C3)C2` (single isomer, unassigned) [Compound 168B] came in with an IC50 of 1000 to 10000 nM.

In turn, `OC(CC1c2ccccc2-c2cncn21)C12CC3CC(C1)C(Nc1nc4ccccc4o1)C(C3)C2` (centres unmarked) [Compound 123] gave an IC50 of under 100 nM.

In turn, `OC(CC1c2ccccc2-c2cncn21)C12CC3CC(C1)C(Nc1nc4ccccc4s1)C(C3)C2` (single isomer, unassigned) [Compound 125B] displayed an IC50 of under 100 nM.

Compound `CS(=O)(=O)NC12CC3CC(C1)C(C(O)CC1c4ccccc4-c4cncn41)C(C3)C2` (single isomer, unassigned) [Compound 168A] gave an IC50 of under 100 nM.

Compound `OC(CC1c2c(F)cccc2-c2cncn21)C12CC3CC(C1)C(Nc1nc4ccccc4o1)C(C3)C2` (centres unmarked) [Compound 124A] showed an IC50 of under 100 nM.

The compound `O=C(Nc1ccc(F)cc1)NC1C2CC3CC1CC(C(O)CC1c4c(F)cccc4-c4cncn41)(C3)C2` (centres unmarked) [Compound 93A] displayed an IC50 of under 100 nM.

`Cc1ccc(NC(=O)NC2C3CC4CC2CC(C(O)CC2c5c(F)cccc5-c5cncn52)(C4)C3)cc1` (centres unmarked) [Compound 97] showed a 50% inhibitory concentration (IC50) of under 100 nM.

For the compound `O=C(Nc1ccccc1)NC1C2CC3CC1CC(C(O)CC1c4c(F)cccc4-c4cncn41)(C3)C2` (single isomer, unassigned) [Compound 55A], the IC50 is under 100 nM.

Consider `N#Cc1ccc(S(=O)(=O)NC23CC4CC(C2)C(C(O)CC2c5ccccc5-c5cncn52)C(C4)C3)cc1` (single isomer, unassigned) [Compound 165B], for which the IC50 is 500 to 1000 nM.

`CCS(=O)(=O)NC12CC3CC(C1)C(C(O)CC1c4ccccc4-c4cncn41)C(C3)C2` (centres unmarked) [Compound 167A] yielded an IC50 of 100 to 500 nM.

As for `O=C(Nc1ccccc1)NC1C2CC3CC1CC(C(O)CC1c4c(F)cccc4-c4cncn41)(C3)C2` (single isomer, unassigned) [Compound 55B], the IC50 fell in the range of 100 to 500 nM.

As for `O=S(=O)(NC1C2CC3CC1CC(C(O)CC1c4c(F)cccc4-c4cncn41)(C3)C2)C1CC1` (centres unmarked) [Compound 81A], the IC50 is under 100 nM.

`O=C(Nc1ccccc1)NC12CC3CC(C1)C(C(O)CC1c4ccccc4-c4cncn41)C(C3)C2` (centres unmarked) [Compound 162A] displayed an IC50 of 100 to 500 nM.

`OC(CC1c2ccccc2-c2cncn21)C12CC3CC(C1)C(Nc1nc4ccccc4s1)C(C3)C2` (single isomer, unassigned) [Compound 125A] registered an IC50 of under 100 nM.

Turning to `CS(=O)(=O)c1ccc(NC(=O)NC2C3CC4CC2CC(C(O)CC2c5c(F)cccc5-c5cncn52)(C4)C3)cc1` (centres unmarked) [Compound 101], the IC50 lay in the range of 100 to 500 nM.

`CC1(O)C2CC3CC1CC(C(O)CC1c4ccccc4-c4cncn41)(C3)C2` (centres unmarked) [Compound 11A]: the IC50 is under 100 nM.

As for `N#Cc1ccc(S(=O)(=O)NC2C3CC4CC2CC(C(O)CC2c5c(F)cccc5-c5cncn52)(C4)C3)cc1` (single isomer, unassigned) [Compound 69B], the half-maximal inhibitory concentration (IC50) was in the range of 500 to 1000 nM.

Turning to `CC(=O)Nc1ccc(NC(=O)NC2C3CC4CC2CC(C(O)CC2c5ccccc5-c5cncn52)(C4)C3)cc1` (centres unmarked) [Compound 102], the half-inhibitory concentration (IC50) lay within 1000 to 10000 nM.

For the compound `O=S(=O)(Cc1ccc(F)cc1)NC1C2CC3CC1CC(C(O)CC1c4c(F)cccc4-c4cncn41)(C3)C2` (centres unmarked) [Compound 71], the IC50 was under 100 nM.

Regarding `N#Cc1ccc(S(=O)(=O)NC2C3CC4CC2CC(C(O)CC2c5c(F)cccc5-c5cncn52)(C4)C3)cc1` (single isomer, unassigned) [Compound 69A], the half-inhibitory concentration (IC50) was under 100 nM.

For `O=S(=O)(NC1C2CC3CC1CC(C(O)CC1c4c(F)cccc4-c4cncn41)(C3)C2)c1ccccc1` (single isomer, unassigned) [Compound 47A], the IC50 was under 100 nM.

For the compound `O=S(=O)(CC1CCC1)NC1C2CC3CC1CC(C(O)CC1c4c(F)cccc4-c4cncn41)(C3)C2` (single isomer, unassigned) [Compound 67B], the IC50 is under 100 nM.

For a further test, the target named is HeLa cell based IDO1 (Homo sapiens (Human), UniProt P14902). Put plainly: Three-point IDO1 cellular assay (HeLa, 10, 100 and 1000 nM). Conditions: HeLa cells, at 100 nM, 100 ng/mL IFN-γ, 18 hours. As for the experimental part:
To perform the 3-point HeLa cell based IDO1 assay, HeLa cells were seeded at 25,000 cells per well into 96-well microplate in 100 μL of growth medium. Cells were incubated at 37° C. and 5% CO2 overnight. The next day 100 μL per well of diluted inhibitor in growth medium at 10, 100 and 1000 nM, respectively, was added at a final concentration of 100 ng/ML human IFN-γ. Cells were incubated at 37° C. in a CO2 incubator for 18 hours. […] The plate was incubated at 50° C. for 30 min to hydrolyze N-formylkynurenine produced by IDO1 to kynurenine. The plate was then centrifuged at 2500 rpm for 10 min to remove sediments. 100 μl of supernatant per well was transferred to another 96-well plate and mixed with 100 μL of 2% (w/v) 4-(Dimethylamino) benzaldehyde in acetic acid. The plate was incubated at room temperature for 10 minutes, the yellow color derived from kynurenine was recorded by measuring absorbance at 480 nm using a microplate reader (TECAN Infinite M1000 Pro). Cell based assays were performed in triplicate at each concentration. The absorbance data were analyzed using the computer software, Graphpad Prism. In the absence of the compound and presence of 100 ng/ML IFN-γ, the absorbance (At) in each data set was defined as 100%. The absorbance of medium blank (Ab) in each data set was defined as 0%. The percent absorbance in the presence of each compound was calculated according to the following equation: % Absorbance=(A−Ab)/(At−Ab), where A=the absorbance in the presence of the compound and IFN-γ, Ab=the absorbance of medium blank, and At=the absorbance in the absence of the compounds and presence of IFN-γ. The values of % absorbance versus the compound concentrations were then determined.
For the compound `CN(C1C2CC3CC1CC(C(O)CC1c4c(F)cccc4-c4cncn41)(C3)C2)S(=O)(=O)Cc1ccccc1` (centres unmarked) [Compound 89], the “inhibition values of %” value is recorded as “greater than 50%”.

As usually defined, the inhibition is the percentage by which the read-out fell short of the control. The low end stands for little suppression, the high end for strong suppression. In the case of `O=S(=O)(NC12CC3CC(C1)C(C(O)CC1c4ccccc4-c4cncn41)C(C3)C2)c1ccc(C(F)(F)F)cc1` (centres unmarked) [Compound 166B], the inhibition at 0.1 µM was over 50%.

With `O=S(=O)(CC1CCOCC1)NC1C2CC3CC1CC(C(O)CC1c4c(F)cccc4-c4cncn41)(C3)C2` (centres unmarked) [Compound 84A], the “inhibition values of %” value is recorded as “greater than 50%”.

`O=C(Nc1ccc(Cl)cc1)NC1C2CC3CC1CC(C(O)CC1c4c(F)cccc4-c4cncn41)(C3)C2` (centres unmarked) [Compound 94A]: the inhibition at 0.1 µM was over 50%.

In turn, `O=S(=O)(CCc1ccccc1)NC1C2CC3CC1CC(C(O)CC1c4c(F)cccc4-c4cncn41)(C3)C2` (centres unmarked) [Compound 64] gave an inhibition at 0.1 µM of over 50%.

The test is the same for the next values; noted with them: HeLa cells, at 1000 nM, 100 ng/mL IFN-γ, 18 hours.
In turn, `Cc1ccc(NC(=O)NC23CC4CC(C2)C(C(O)CC2c5ccccc5-c5cncn52)C(C4)C3)cc1` (centres unmarked) [Compound 164B] showed an inhibition at 1 µM of over 50%.

Regarding `O=C(Nc1cccc2ccccc12)NC1C2CC3CC1CC(C(O)CC1c4c(F)cccc4-c4cncn41)(C3)C2` (centres unmarked) [Compound 109A], the inhibition at 1 µM is over 50%.

Take `O=S(=O)(Cc1ccccc1)NC1C2CC3CC1CC(C(O)CC1c4ccccc4-c4cncn41)(C3)C2` (centres unmarked) [Compound 75B]: the inhibition at 1 µM is over 50%.

Regarding `NS(=O)(=O)NC1C2CC3CC1CC(C(O)CC1c4c(F)cccc4-c4cncn41)(C3)C2` (centres unmarked) [Compound 48A], the inhibition at 1 µM is over 50%.

For the compound `OC(CC1c2c(F)cccc2-c2cncn21)C12CC3CC(C1)C(OCCN1CCOCC1)C(C3)C2` (centres unmarked) [Compound 135B], the inhibition at 1 µM is over 50%.

As to `CNC(=O)NC1C2CC3CC1CC(C(O)CC1c4c(F)cccc4-c4cncn41)(C3)C2` (centres unmarked) [Compound 98A], the “inhibition values of %” value is “greater than 50%”.
